Values after ≈ are worked out from the molar mass of the structure shown. Where two headings read alike, the source gives them in different places.
Legend:
[1] = Permeability across an artificial membrane; assay type: in vitro ADME; conditions: PAMPA
From the text: (§1) Physicochemical analyses of compounds were completed at GSK.

endogenous NOD2 = biological target: T1, endogenous NOD2 (Homo sapiens, UniProt Q9HC29); assay: MDP-stimulated IL-8 release in HCT116 cells; assay type: cell-based; conditions: for IC50: human colon carcinoma cells, IL-8 released into medium
T1 construct: Compound activity on endogenous NOD1 and NOD2 receptors was determined; host or cells: HCT116
T1 sequence (Q9HC29 whole entry): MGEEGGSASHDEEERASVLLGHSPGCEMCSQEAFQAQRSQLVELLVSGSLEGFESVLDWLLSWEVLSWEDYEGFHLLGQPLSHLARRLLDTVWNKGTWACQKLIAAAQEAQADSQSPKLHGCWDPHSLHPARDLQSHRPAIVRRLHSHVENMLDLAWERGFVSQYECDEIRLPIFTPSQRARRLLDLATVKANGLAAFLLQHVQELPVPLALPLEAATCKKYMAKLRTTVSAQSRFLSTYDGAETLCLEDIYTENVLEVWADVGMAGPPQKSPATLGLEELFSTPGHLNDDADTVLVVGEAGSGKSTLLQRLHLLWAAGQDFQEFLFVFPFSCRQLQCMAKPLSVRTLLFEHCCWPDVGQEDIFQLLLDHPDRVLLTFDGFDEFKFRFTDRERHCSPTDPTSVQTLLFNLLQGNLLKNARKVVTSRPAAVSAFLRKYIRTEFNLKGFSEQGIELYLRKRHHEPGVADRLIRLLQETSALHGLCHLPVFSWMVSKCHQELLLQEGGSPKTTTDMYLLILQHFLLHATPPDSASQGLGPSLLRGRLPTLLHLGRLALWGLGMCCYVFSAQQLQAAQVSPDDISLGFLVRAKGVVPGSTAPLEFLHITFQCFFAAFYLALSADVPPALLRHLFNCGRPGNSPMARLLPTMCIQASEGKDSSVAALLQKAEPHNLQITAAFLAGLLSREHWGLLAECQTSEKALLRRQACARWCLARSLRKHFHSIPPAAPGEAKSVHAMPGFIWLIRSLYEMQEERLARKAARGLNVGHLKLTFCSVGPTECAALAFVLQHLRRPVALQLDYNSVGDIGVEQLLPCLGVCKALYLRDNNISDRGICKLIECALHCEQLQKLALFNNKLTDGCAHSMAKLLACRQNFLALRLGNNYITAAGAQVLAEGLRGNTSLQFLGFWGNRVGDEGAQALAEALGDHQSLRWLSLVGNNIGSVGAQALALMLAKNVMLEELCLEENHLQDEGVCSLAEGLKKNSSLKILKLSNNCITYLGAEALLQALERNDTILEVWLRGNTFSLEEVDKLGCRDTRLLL
Description: (§2) For assay, cells were seeded into 96 well plates (90,000 cells/well) in DMEM containing 1% FBS and pre-incubated with compounds for 1 hour before addition of either 25 µg/mL Tri-DAP or 1 µg/mL MDP. The level of IL-8 released into medium after 24-hour incubation was determined by HTRF assay (Cisbio) as described above and fluorescence measured on an Envision model 2102 multilabel plate reader (Perkin Elmer). The activity of compounds against NOD1-induced type I interferon response was determined by inhibition of Tri-DAP stimulated IP-10 secretion in HT-29 cells, maintained in the same medium as for HCT116 cells. The HT-29 cells were seeded into 96 well plates (60,000 cells/well) in DMEM with 1% FBS, pre-incubated with compounds for 1 hour and stimulated for 24 hours with 50 µg/mL Tri-DAP. The concentration of IL-8 released into the medium was measured by HTRF as above, IP-10 was measured using the IP-10/CXCL10 Quantikine ELISA kit (R&D Systems), and IFNβ was measured using the MA6000 human IFN-β tissue culture kit (Meso Scale Discovery).

CLND solubility = assay type: physicochemical; conditions: phosphate buffered saline with 5% DMSO, pH 7.4, aqueous buffer, kinetic from dmso stock; 5% DMSO pH7.4 phosphate buffered saline
From the text: as §1

NOD1 [2] = biological target: T2, NOD1 (Homo sapiens, UniProt Q9Y239); assay: iE-DAP-stimulated IL-8 release in 293/hNOD1 cells; assay type: cell-based
T2 sequence (Q9Y239 1-953): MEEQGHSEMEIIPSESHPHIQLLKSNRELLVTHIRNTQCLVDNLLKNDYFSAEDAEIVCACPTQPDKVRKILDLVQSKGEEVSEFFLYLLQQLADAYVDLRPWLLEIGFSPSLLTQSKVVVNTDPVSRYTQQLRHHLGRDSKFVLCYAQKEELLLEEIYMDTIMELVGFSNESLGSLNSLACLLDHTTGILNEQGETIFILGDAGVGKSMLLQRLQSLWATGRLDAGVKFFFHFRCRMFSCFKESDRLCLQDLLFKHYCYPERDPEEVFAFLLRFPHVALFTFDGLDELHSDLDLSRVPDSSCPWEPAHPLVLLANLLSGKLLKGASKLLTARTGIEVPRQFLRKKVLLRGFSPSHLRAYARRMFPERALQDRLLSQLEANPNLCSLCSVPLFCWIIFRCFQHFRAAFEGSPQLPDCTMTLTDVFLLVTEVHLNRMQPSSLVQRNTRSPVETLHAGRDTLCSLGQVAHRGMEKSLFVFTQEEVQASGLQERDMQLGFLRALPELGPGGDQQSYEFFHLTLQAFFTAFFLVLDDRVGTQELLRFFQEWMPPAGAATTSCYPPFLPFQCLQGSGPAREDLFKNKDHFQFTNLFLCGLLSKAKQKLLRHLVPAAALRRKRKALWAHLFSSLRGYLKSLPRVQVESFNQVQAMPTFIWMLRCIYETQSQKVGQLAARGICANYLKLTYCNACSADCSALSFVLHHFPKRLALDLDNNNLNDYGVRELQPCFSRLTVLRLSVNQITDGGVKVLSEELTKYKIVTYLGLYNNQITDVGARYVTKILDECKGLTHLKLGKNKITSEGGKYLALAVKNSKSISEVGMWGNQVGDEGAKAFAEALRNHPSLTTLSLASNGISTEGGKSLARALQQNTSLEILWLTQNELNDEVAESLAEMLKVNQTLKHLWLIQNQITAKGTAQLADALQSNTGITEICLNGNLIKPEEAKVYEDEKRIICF
Description: Inhibitors of iE-DAP-stimulated IL-8 release were screened in a 1536-well assay in which 293/hNOD1 cells (5000 cells/well) in DMEM high glucose medium supplemented with 0.1% FBS and 10 µg/mL Blasticidin S were stimulated with 60 ng/mL (200 nM) iE-DAP (EC80) in the presence of 10 µM compounds. After 24 hours the amount of IL-8 secreted into the medium was determined by homogeneous time resolved fluorescence (HTRF) assay by the direct addition of a 1∶1 mix of europium cryptate and XL665-conjugated anti-IL-8 antibodies according to the manufacturer’s instructions (Cisbio). Fluorescence was measured after 2 hours in a ViewLux imager using UMB-AMC excitation and 618–671 nm emission filters (Perkin Elmer). […] Inhibition of TNFR1-induced IL-8 release was performed with 293/hNOD1 cells stimulated with 20 ng/mL (∼EC95) rhTNFα.
A high-throughput screen of about 2.2 million compounds was conducted for inhibitors of the NOD1 signaling pathway using suppression of iE-DAP stimulated IL-8 secretion in HEK293 cells stably expressing human NOD1 (293/hNOD1 cells). […] These assays were chosen to assess the selectivity of hits because the signaling pathways activated by these receptors converge at the level of the TAB/TAK1/IKK complex.

TLR2 = TLR2 (Homo sapiens, UniProt O60603); assay: Pam2CSK4-stimulated IL-8 release in 293/hTLR2 cells; assay type: cell-based; conditions: IL-8 released into medium
TLR2, sequence (O60603 21-784): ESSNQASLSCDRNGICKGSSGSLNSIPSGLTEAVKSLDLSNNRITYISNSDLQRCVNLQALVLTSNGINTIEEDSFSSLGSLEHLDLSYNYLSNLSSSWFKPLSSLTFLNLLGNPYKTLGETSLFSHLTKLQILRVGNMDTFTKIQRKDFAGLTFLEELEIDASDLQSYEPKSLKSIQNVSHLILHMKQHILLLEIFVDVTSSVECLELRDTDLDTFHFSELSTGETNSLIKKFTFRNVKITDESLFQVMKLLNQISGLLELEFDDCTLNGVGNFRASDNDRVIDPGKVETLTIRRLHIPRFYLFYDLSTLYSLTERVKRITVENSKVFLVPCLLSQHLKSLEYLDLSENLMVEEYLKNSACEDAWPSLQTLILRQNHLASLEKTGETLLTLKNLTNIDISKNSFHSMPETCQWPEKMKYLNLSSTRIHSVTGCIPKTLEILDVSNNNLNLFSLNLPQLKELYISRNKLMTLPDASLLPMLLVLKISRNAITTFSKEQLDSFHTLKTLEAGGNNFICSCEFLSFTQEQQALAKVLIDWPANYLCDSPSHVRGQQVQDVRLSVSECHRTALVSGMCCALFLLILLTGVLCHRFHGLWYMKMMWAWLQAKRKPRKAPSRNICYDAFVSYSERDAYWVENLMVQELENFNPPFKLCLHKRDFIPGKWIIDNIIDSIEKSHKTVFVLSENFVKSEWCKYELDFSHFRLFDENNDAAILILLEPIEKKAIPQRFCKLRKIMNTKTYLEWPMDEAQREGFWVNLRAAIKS

endogenous NOD1 = biological target: T3, endogenous NOD1 (Homo sapiens, UniProt Q9Y239); assay: Tri-DAP-stimulated IL-8 release in HCT116 cells; assay type: cell-based; conditions: for inhibition of Tri-DAP-stimulated IL-8 secretion: HCT116, increasing concentrations (16 nM–16 µM); for IC50: human colon carcinoma cells, IL-8 released into medium
T3 construct: Compound activity on endogenous NOD1 and NOD2 receptors was determined; host or cells: HCT116
T3 sequence (Q9Y239 1-953): T2 sequence (Q9Y239 1-953)
Description: as §2

NOD1 [3] = assay: Tri-DAP stimulated IL-8 release in HT-29 cells; assay type: cell-based, human; conditions: HT-29, 50 µg/mL Tri-DAP 24 hours, same supernatants
Description: as §2

murine NOD1 = assay: NOD1 stimulated KC (CXCL1) production in murine bone marrow derived macrophages; assay type: cell-based, mouse; conditions: murine BMDM, 25 µg/mL FK156 or Tri-DAP, 24 hours
Description: C57BL/6 mice were obtained from the Jackson Laboratories. Bone marrow was flushed from the femurs and tibiae of adult (∼3 month old) mice with serum-free DMEM medium using a 23-gauge needle and syringe. A fine cell suspension was obtained by gentle aspiration and passage through a […] cell strainer. After centrifugation and re-suspending in DMEM supplemented with 10%HI-FBS, the mononuclear cells obtained from each animal were plated into the central 60 wells of a 96-well plate. After 24 hours, the medium and non-adherent cells were removed and replaced with DMEM with 10%HI-FBS containing 10 ng/mL M-CSF and the cells cultured for 1 week with two additional medium changes. After this time the medium was aspirated and the cells pre-treated with compounds for 1 hour and then stimulated for 24 hours with either 25 µg/mL Tri-DAP or FK156. Each treatment was performed in triplicate wells. The concentration of murine KC (CXCL1) together with 6 other cytokines/chemokines present in conditioned medium was then determined using the murine pro-inflammatory 7-plex assay (Meso Scale Discovery).

[4] = system: NOD1-induced type I interferon response; assay: Tri-DAP stimulated IP-10 secretion in HT-29 cells; assay type: cell-based; conditions: Homo sapiens; HT-29, 50 µg/mL Tri-DAP 24 hours
Description: as §2

[5] = HEK293 stably expressing human NOD1, IL-8 released into medium, read-out: IC50 293/hNOD1 iE-DAP

Papp [1] [×10⁻⁶ cm/s]	greatest inhibition of MDP-stimulated IL-8 release (endogenous NOD2; HCT116, at high concentrations) [%]	IC50 (endogenous NOD2) [µM]	solubility (CLND solubility) [µM]	IC50 (NOD1 [2]; [5]) [µM]	IC50 (TLR2) [µM]	inhibition of Tri-DAP-stimulated IL-8 secretion (endogenous NOD1)	IC50 (endogenous NOD1) [µM]	IC50 (NOD1 [3]) [µM]	IC50 [4] [µM]	IC50 (NOD1 [2]; iE-DAP-stimulated IL-8 production in 293/hNOD1 cells, SAR figures, read-out: NOD1 XC50) [µM]	SMILES	inhibition of FK156 or Tri-DAP-stimulated KC production (murine NOD1)
49	30	> 50	327 (≈ 145 µg/mL)	1	> 50	complete inhibition	0.4				CCc1ccc(S(=O)(=O)Nc2cc(-n3c(C)nc4ccccc4c3=O)ccc2F)s1 [GSK223]	
		> 15		0.06	> 50		0.03	0.03	0.08		Cc1nc2ccccc2c(=O)n1-c1ccc(Cl)c(NS(=O)(=O)c2ccccc2F)c1 [Compound 22]	little or no inhibitory activity
22			14 (≈ 6.13 µg/mL)	0.4	> 50		0.06	0.04	0.25	0.43 ± 0.1	Cc1ccc(S(=O)(=O)Nc2cccc(C(=O)Nc3ccc4nc(C)sc4c3)c2)cc1 [Compound 16]	partial inhibition at best
		> 50	2 (≈ 0.785 µg/mL)	0.6	> 50	complete inhibition	0.9				Cn1c(=O)[nH]c(=O)c2c1nc(CCSc1ccccc1)n2Cc1ccccc1 [SB711]	
30			41 (≈ 18.1 µg/mL)	3.5	> 50	complete inhibition	0.7				Cc1nc2ccc(NC(=O)c3cccc(NS(=O)(=O)c4ccc(F)cc4)c3)cc2s1 [GSK966]	
